Consider four compounds from patent US12157741B2, “Macrocyclic inhibitors of DYRK1A” (DANA-FARBER CANCER INSTITUTE, INC., priority 2018, dated 2024).

The test system of experiment [1] is various enzymes (Homo sapiens). It counts as binding. The settings on record: compound 1 uM. How it is done: (§1) Ambit profiling was conducted in accordance with the manufacturer's instructions.
For experiment [2], the target named is various enzymes (Homo sapiens, UniProt P09769). It counts as binding. As to conditions: compound 1 uM. How it is done: as §1
For another experiment, the target named is T1, DYRK1B (Homo sapiens, UniProt Q9Y463).
T1 construct: purchased Invitrogen (assay run by the vendor)
Kind of experiment: Invitrogen Zlyte assay, DYRK1B. It counts as biochemical.

In experiment [3] the target is various enzymes (Homo sapiens, UniProt Q9NQU5). Format: binding. The settings on record: compound 1 uM. How it is done:
as §1

Experiment [4] has as its system various enzymes. Format: binding. The settings on record: statement in words, compared with compound 48. As to the method:
as §1

Experiment [5] deals with various enzymes (Homo sapiens, UniProt P30530). It counts as binding. As to conditions: compound 1 uM. As to the method: as §1
For experiment [6], the target named is various enzymes (Homo sapiens, UniProt P00533, DEL747-749/A750P). The settings on record: EGFR(L747-E749del, A750P); 1 uM.
Description: (§2) Ambit profiling from Eurofins (formerly Discoverx) was conducted in accordance with the manufacturer's instructions.
In experiment [7] the target is T2, various enzymes (Homo sapiens, UniProt P45985).
T2 sequence (P45985 1-399): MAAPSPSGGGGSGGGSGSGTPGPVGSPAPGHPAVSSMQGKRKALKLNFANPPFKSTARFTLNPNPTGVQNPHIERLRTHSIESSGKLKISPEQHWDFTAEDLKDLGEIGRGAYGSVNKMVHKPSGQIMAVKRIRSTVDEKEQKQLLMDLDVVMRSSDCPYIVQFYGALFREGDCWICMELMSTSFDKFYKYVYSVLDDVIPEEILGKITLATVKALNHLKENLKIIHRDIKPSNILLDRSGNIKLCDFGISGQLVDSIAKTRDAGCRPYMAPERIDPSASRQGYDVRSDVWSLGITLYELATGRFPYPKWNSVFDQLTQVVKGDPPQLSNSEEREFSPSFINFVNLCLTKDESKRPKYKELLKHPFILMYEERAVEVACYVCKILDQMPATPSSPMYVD
Kind of experiment: Enzyme IC50 of compound 48 (Table 3). It counts as biochemical. Details: Enzyme IC50; other: MEK4. The settings on record: MEK4.

The next experiment concerns the target T3, LRRK2 (G2019S) (Homo sapiens, UniProt Q5S007, G2019S).
T3 construct: purchased SignalChem L10-12GG
As to the kind of experiment: LRRK2(G2019S) enzyme assay (Promega ADP-Glo Kinase assay). Format: biochemical. As to conditions: 25 μM ATP, read-out: Enzyme activity against LRRK2 (G2019S). How it is done: All LRRK2 kinase inhibition assays were conducted by using Promega™ ADP-Glo™ Kinase assay systems (Cat No. V4475).
For LRRK G2019S, each compound mixed with 0.2 μg/μL of substrate, 25 μM ATP, 16 ng of LRRK2 G2019S enzyme (SignalChem, L10-12GG). All samples were diluted with kinase reaction buffer (40 mmol/L TrisHCl, 10 mmol/L MgCl2, and 0.1 μg/μL BSA, 0.05 mM DTT). After a 2 h reaction at 25° C., ADP-Glo™ (Promega™, V9102) reagent was added and incubated at rt for 40 min. Finally, kinase detection reagent (Promega™, Cat No. V6930) was added and reacted at 25° C. for 10 min. The luminescence signals were detected by using Synergy™ Neo2 microplate reader (BioTek®). Compound inhibition curve was fitted using GraphPad Prism 8.0 software.

For experiment [8], the target named is various enzymes (Homo sapiens, UniProt Q9Y2I7). As to conditions: PIKFYVE; 1 uM.
Description: as §2
For experiment [9], the target named is various enzymes (Homo sapiens, UniProt Q6P2M8). As to conditions: CAMK1B; 1 uM.
Description: as §2
Experiment [10] concerns the target various enzymes (Homo sapiens, UniProt P36888, F691L, form not given).
Experiment [11] deals with various enzymes (Homo sapiens, UniProt P36888, D835V, form not given).

Bounds are passed on as bounds.

various enzymes (Homo sapiens, UniProt Q9Y2I7), sequence (Q9Y2I7 whole entry): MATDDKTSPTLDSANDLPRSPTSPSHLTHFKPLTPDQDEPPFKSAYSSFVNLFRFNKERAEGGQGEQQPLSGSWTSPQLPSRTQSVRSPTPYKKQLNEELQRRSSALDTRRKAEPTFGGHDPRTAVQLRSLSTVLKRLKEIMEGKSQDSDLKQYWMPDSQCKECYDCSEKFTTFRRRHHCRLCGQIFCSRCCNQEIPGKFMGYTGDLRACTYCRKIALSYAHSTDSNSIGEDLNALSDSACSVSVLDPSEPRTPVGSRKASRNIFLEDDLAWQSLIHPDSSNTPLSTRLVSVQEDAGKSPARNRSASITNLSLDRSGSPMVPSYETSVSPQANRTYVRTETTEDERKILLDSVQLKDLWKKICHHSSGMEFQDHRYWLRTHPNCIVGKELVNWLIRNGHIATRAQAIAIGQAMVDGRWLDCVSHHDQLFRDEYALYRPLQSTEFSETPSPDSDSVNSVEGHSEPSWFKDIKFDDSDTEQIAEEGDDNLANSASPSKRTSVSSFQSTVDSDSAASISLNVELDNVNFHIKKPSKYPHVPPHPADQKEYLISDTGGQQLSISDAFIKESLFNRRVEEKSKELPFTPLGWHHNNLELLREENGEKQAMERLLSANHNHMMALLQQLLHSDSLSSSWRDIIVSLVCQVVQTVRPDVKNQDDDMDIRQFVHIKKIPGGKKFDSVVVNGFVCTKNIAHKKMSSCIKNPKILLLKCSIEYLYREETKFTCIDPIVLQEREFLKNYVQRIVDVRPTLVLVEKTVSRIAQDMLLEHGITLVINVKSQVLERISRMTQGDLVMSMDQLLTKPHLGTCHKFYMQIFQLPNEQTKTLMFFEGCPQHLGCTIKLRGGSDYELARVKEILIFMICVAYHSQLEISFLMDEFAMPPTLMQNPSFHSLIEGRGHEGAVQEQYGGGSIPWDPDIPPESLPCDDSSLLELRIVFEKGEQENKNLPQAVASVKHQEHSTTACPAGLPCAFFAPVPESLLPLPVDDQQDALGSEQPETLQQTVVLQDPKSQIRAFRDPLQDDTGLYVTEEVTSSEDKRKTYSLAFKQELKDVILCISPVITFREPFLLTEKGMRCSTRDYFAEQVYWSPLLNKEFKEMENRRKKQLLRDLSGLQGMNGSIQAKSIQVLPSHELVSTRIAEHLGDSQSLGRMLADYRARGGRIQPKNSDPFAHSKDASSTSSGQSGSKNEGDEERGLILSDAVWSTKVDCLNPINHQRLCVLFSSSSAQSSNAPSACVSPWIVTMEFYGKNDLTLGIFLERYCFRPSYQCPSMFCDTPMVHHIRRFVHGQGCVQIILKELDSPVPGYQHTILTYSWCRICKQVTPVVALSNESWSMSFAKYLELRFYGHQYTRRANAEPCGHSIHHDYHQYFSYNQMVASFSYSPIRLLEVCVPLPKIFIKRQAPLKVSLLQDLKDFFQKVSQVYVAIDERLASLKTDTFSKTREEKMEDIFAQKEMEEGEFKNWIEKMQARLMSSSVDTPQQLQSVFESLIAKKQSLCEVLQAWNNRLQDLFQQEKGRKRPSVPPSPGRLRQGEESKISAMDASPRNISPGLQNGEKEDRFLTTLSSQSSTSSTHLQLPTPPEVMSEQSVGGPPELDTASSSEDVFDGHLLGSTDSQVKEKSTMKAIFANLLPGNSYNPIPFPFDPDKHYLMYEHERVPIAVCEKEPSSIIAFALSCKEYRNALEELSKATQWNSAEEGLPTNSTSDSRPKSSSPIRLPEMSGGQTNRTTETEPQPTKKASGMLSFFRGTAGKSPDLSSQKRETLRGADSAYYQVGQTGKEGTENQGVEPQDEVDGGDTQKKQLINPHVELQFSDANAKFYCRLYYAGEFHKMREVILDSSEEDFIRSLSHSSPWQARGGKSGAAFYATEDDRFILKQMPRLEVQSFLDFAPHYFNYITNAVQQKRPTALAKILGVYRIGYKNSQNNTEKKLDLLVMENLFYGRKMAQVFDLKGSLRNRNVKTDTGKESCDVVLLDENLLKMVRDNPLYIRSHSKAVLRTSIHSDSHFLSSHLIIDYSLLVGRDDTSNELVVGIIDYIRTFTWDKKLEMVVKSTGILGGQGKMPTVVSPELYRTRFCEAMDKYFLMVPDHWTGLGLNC
various enzymes (Homo sapiens, UniProt P09769), sequence (P09769 whole entry): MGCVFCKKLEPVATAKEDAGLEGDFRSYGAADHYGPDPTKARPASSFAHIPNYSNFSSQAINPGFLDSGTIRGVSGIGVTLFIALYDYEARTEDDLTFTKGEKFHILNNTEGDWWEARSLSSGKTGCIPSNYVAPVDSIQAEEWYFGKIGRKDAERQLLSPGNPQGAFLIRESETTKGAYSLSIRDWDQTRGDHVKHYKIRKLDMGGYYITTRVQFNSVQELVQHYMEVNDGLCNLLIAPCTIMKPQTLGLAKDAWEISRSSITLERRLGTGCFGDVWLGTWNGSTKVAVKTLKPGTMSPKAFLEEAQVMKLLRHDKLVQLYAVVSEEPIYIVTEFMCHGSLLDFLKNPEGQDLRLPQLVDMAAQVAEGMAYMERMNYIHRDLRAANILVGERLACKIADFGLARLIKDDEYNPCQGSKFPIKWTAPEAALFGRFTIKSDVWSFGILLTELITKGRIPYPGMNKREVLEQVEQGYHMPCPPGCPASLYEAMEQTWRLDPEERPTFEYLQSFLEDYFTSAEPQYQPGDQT
various enzymes (Homo sapiens, UniProt P30530), sequence (P30530 26-894): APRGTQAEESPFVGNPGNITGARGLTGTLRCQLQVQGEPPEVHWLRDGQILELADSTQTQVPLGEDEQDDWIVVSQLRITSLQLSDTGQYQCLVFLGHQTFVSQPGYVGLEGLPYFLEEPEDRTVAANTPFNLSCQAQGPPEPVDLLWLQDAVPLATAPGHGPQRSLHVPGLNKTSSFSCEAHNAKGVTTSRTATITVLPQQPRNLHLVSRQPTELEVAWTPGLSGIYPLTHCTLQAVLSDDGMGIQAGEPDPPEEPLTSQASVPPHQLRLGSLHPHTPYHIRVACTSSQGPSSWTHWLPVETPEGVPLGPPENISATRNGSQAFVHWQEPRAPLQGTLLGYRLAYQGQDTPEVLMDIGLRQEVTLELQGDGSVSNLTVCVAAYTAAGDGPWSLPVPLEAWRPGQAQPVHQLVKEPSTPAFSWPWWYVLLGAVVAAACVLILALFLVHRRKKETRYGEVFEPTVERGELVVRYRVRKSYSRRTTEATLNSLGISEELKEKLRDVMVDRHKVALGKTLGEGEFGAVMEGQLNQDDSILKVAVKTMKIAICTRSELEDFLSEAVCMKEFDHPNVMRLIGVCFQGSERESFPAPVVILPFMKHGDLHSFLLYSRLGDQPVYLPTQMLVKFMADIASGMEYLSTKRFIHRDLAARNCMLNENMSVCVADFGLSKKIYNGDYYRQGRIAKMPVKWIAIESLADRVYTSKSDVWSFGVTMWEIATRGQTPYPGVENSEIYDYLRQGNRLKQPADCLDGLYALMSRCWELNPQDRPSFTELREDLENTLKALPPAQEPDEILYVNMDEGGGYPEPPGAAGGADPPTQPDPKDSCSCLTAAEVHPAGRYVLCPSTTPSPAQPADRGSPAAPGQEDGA
T1 sequence (Q9Y463 whole entry): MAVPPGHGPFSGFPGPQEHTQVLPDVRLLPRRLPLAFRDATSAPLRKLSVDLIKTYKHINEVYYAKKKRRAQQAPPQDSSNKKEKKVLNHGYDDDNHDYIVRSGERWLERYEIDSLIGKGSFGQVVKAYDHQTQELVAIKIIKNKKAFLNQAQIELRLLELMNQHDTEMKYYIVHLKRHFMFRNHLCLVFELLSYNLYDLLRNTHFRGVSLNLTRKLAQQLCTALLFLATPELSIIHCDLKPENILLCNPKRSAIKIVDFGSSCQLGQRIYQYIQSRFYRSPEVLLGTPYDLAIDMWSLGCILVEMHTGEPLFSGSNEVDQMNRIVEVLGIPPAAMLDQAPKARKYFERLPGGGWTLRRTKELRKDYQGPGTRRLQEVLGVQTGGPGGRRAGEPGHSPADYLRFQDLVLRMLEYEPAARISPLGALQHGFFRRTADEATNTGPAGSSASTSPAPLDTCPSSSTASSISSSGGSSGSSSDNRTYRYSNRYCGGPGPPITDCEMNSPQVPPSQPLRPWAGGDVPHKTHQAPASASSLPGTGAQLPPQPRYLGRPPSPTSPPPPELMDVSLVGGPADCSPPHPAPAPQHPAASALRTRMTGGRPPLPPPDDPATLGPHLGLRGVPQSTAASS
various enzymes (Homo sapiens, UniProt Q6P2M8), sequence (Q6P2M8 whole entry): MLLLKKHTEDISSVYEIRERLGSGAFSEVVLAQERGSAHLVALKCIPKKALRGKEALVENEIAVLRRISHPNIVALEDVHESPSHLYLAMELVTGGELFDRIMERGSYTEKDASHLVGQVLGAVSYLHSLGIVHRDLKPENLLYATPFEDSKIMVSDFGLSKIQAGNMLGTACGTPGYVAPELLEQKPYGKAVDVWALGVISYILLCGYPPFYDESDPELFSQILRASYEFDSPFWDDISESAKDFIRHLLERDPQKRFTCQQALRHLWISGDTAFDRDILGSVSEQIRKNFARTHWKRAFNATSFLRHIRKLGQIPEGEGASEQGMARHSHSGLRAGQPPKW

Take `COc1c2c(nn1C)CN(C(C)C)C(=O)CCCn1cc(c(C(F)(F)F)n1)-c1c[nH]c3ncc-2cc13` [Compound 50, (Z)-5-isopropyl-35-methoxy-31-methyl-13-(trifluoromethyl)-11H,21H,31H-5-aza-2(3,5)-pyrrolo[2,3-b]pyridina-1(4,1),3(4,3)-dipyrazolacyclononaphan-6-one]: in experiment [1], the “Ambit profiling: PAK8” value came out at 86. In addition, the “Ambit profiling: FGR” value on various enzymes [2] is 5.2. Further, at DYRK1B, the IC50 came to 146 nM.

As to `CC(C)N1Cc2nn(C)cc2-c2cnc3[nH]cc(c3c2)-c2cn(nc2C(F)(F)F)CCCC1=O` [Compound 45, (Z)-5-isopropyl-31-methyl-13-(trifluoromethyl)-11H,21H,31H-5-aza-2(3,5)-pyrrolo[2,3-b]pyridina-1(4,1),3(4,3)-dipyrazolacyclononaphan-6-one], the “Ambit profiling: PAK6” value at various enzymes [3] is on record as 70. Besides, the “selectivity for DYRK1A (Ambit profiling, Table 4)” value with various enzymes [4] is on record as “not as selective for DYRK1A as compound 48”. Further, the “Ambit profiling: AXL” value at various enzymes [5] was 0.

On to `CN1Cc2nn(C)cc2-c2cnc3[nH]cc(c3c2)-c2cnn(c2)CCCC1=O` [Compound 41, (Z)-31,5-dimethyl-11H,21H,31H-5-aza-2(3,5)-pyrrolo[2,3-b]pyridina-1(4,1),3(4,3)-dipyrazolacyclononaphan-6-one], for which the Ambit profiling on various enzymes [6] turned out to be 79.

For the compound `CN1Cc2nn(C)c(C#N)c2-c2cnc3[nH]cc(c3c2)-c2cn(nc2C(F)(F)F)CCCC1=O` [Compound 48, (Z)-31,5-dimethyl-6-oxo-13-(trifluoromethyl)-11H,21H,31H-5-aza-2(3,5)-pyrrolo[2,3-b]pyridina-1(4,1),3(4,3)-dipyrazolacyclononaphane-35-carbonitrile], the IC50 on various enzymes [7] was 173 nM; at LRRK2 (G2019S), > 100 nM. The Ambit profiling is on record as 94 at various enzymes [8], 2.9 at various enzymes [9], 46 at various enzymes [10] and 2.2 at various enzymes [11].
